One test concerns the target T1, CalDAG-GEFI (Homo sapiens, UniProt Q7LDG7).
T1 construct: gene RASGRP2; recombinant 6xHis, C-terminal truncation p.(Ala552_Leu609del); with Rap1B
Description: BODIPY-FL-GDP fluorescence nucleotide exchange assay with purified recombinant CalDAG-GEFI and Rap1B. It is filed as biochemical. From the text:
BODIPY-FL-GDP fluorescence nucleotide exchange assay with purified recombinant CalDAG-GEFI and Rap1B on CalDAG-GEFI | Citalopram inhibited CalDAG-GEFI-mediated BODIPY-FL-GDP exchange onto Rap1B in a concentration-dependent manner

In the next test the target is T2, glycoprotein VI (GPVI) (Homo sapiens, UniProt Q9HCN6).
T2 construct: gene GP6; native GPVI on washed human platelets; with FcRγ chain
T2 sequence (Q9HCN6 21-339): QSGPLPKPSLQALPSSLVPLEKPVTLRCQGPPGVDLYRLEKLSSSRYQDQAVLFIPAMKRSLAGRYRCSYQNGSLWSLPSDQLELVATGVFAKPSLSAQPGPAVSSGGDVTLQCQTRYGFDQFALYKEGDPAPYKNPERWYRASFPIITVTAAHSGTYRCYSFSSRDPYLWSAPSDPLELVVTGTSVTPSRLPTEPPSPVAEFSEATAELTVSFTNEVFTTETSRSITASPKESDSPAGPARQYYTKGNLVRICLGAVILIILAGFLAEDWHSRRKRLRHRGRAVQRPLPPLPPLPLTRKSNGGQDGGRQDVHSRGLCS
T2 sequence (P30273 19-86 partner): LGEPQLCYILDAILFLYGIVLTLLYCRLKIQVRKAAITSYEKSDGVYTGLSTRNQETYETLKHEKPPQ
Description: Schild analysis of CRPXL-induced platelet aggregation; inhibition of anti-GPVI antibody binding by flow cytometry. It is filed as cell-based. The following applies: platelets; read-out: Kd.

T1 sequence (P61224 1-167): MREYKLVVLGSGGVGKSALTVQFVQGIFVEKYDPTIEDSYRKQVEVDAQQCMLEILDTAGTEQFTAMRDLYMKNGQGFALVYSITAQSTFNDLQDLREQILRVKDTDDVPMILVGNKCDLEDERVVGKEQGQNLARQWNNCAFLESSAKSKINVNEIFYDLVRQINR
T1 sequence (Q7LDG7 1-551): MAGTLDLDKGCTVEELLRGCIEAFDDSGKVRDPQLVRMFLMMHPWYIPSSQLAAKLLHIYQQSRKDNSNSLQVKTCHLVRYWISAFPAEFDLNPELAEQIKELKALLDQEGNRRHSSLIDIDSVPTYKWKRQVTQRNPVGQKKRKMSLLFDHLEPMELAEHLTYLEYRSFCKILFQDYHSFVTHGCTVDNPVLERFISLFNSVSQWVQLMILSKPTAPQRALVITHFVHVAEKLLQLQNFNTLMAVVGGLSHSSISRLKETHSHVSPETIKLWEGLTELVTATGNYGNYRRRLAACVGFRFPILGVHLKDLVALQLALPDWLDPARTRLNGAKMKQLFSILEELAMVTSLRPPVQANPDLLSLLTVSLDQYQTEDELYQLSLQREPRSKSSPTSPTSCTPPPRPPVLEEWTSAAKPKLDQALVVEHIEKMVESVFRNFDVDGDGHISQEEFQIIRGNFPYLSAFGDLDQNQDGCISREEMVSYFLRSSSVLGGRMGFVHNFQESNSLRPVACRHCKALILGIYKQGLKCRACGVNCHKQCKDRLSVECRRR

In the case of `CN(C)CCCC1(c2ccc(F)cc2)OCc2cc(C#N)ccc21` (racemic) [citalopram], the IC50 (in general, the midpoint of a concentration-inhibition curve) at CalDAG-GEFI was 214 µM. The Kb at glycoprotein VI (GPVI) was about 16 µM.

For the origin of these results see PMC6232110, “Two novel, putative mechanisms of action for citalopram-induced platelet inhibition” (Scientific Reports, 2018).
